Format in all cases: cell-based
For test [1], the system named is 5HT2A sensor. Put plainly: 5HT2A sensor assay, agonist mode (sLight1.3s HEK293T stable line). The note with it: percent relative to 5-HT at 100 uM; for 5HT2A Agonist mean @ 100 nM (%): 100 nM compound; for 5HT2A Agonist mean @ 10 μM (%): 10 μM compound; for 5HT2A Agonist mean @ 100 μM (%): 100 μM compound. Summed up: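 Agonist mode in HEK293T cells stably expressing the sLight1.3 5HT2A sensor, washed into HBSS; compounds at final 100 μM, 10 μM and 100 nM (0.1% DMSO), triplicate wells. Membrane fluorescence (ex 460, em 512-542 nm) imaged before and after addition; dFF=(Fsat−Fapo)/Fapo, expressed as percent activation (DMSO=0, 5HT=100).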

Test [2] deals with 5HT2A sensor. The test is described as follows: 5HT2A sensor assay, antagonist mode (sLight1.3s HEK293T stable line). The note with it: relative to 5-HT at 100 nM; for 5HT2A Antagonist mean @ 100 nM (%): 100 nM compound; for 5HT2A Antagonist mean @ 10 μM (%): 10 μM compound; for 5HT2A Antagonist mean @ 100 μM (%): 100 μM compound. In short, it runs like this: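 Inactivation score is computed from membrane dFF as (dFF(compound+5HT)−dFF(5HT))/dFF(5HT), with HBSS-only fluorescence as Fapo. Final concentrations: 5-HT 100 nM added first, then compound at 100 nM, 10 μM or 100 μM in 0.1% DMSO. Triplicates; FITC imaging, 5 fields per well.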

In the next test the target is T1, 5HT2A (Homo sapiens, UniProt P28223).
T1 construct: expressed in transfected cells
Put plainly: Calcium flux assay (Calcium secondary messenger pathway). Particulars: agonist mode. Summed up:
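Gq-coupled calcium mobilization in cells stably expressing 5HT2A, loaded 30–60 min at 37 °C with calcium-sensitive dye in HBSS/20 mM Hepes with 2.5 mM probenecid. Compound added 5 s into a 2-min FLIPR Tetra fluorescence read at room temperature; % activity relative to vehicle and maximal control-ligand RFU.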
(In general: A change in cytosolic calcium serves as a functional read-out for many receptors and channels.)

For the next test, the system named is rat cortical neurons. The test is described as follows: Neurite outgrowth assay. Particulars: Cortical neurone, 1 hour treatment at DIV 4, analysed DIV 7, fold vs DMSO control. Summed up:
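Embryonic day 18 rat cortical neurons, 20,000 cells/well in Neurobasal/B27, were exposed at DIV 4 to 10 μM compound for 1 hour, then washed out. At DIV 7, β-III-tubulin immunostaining and automated imaging gave neurite length, branch points, root and extremity counts, reported as fold-change versus DMSO; triplicates.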

Where [3] appears, read: read-out: Neurite Average Length @ 10 μM.
Setting [4] is: read-out: Neurite Branch Points: @ 10 μM.

From patent US11254640B2, “N-substituted indoles and other heterocycles for treating brain disorders” (The Regents of the University of California, priority 2019, dated 2022) come the findings set out here.

SMILES strings stand for the structures. Read-outs that look alike come from different tables or passages of the source.

T1 sequence (P28223 whole entry): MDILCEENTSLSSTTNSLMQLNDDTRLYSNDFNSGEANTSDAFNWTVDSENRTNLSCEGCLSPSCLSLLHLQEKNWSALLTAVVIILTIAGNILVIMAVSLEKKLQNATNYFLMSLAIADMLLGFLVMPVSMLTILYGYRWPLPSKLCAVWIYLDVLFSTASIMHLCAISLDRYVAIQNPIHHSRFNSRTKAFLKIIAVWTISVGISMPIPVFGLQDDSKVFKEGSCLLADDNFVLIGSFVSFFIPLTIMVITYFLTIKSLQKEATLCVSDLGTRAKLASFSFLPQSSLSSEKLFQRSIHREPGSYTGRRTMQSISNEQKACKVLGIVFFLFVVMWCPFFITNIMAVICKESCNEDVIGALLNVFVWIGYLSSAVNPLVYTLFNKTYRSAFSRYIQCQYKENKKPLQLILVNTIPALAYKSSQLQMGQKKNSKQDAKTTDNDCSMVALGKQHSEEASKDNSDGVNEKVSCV

The EC50 is the concentration that produces a half-maximal response. As to `CC[C@H](Cn1ccc2cc(OC)ccc21)N(C)C` [Example 75, (R)-1-(5-methoxy-1H-indol-1-yl)-N,N-dimethylbutan-2-amine], in the test on 5HT2A sensor [1], the “5HT2A Agonist mean @ 100 nM (%)” value was “B (does not activate 5HT2A sensor assay in agonist mode)”, the “5HT2A Agonist mean @ 10 μM (%)” value is recorded as “B (does not activate 5HT2A sensor assay in agonist mode)” and the “5HT2A Agonist mean @ 100 μM (%)” value was “B (does not activate 5HT2A sensor assay in agonist mode)”. Moreover, in the test on 5HT2A sensor [2], the “5HT2A Antagonist mean @ 100 nM (%)” value is “A (inhibits 5HT response by >100%)”, the “5HT2A Antagonist mean @ 10 μM (%)” value is “A (inhibits 5HT response by >100%)” and the “5HT2A Antagonist mean @ 100 μM (%)” value was “A (inhibits 5HT response by >100%)”. Moreover, the EC50 on 5HT2A is over 10 µM. In addition, the fold induction at 10 µM in the test on rat cortical neurons (setting [3]) was under 1.5. In addition, the fold induction at 10 µM with rat cortical neurons (setting [4]) was under 1.5.

Take `CN(C)CCn1cnc2ccccc21` [Example 57, 2-(1H-benzo[d]imidazol-1-yl)-N,N-dimethylethan-1-amine]: in the test on 5HT2A sensor [1], the “5HT2A Agonist mean @ 100 nM (%)” value was “B (does not activate 5HT2A sensor assay in agonist mode)”, the “5HT2A Agonist mean @ 10 μM (%)” value was “B (does not activate 5HT2A sensor assay in agonist mode)” and the “5HT2A Agonist mean @ 100 μM (%)” value is “B (does not activate 5HT2A sensor assay in agonist mode)”. Also, in the test with 5HT2A sensor [2], the “5HT2A Antagonist mean @ 100 nM (%)” value was “B (inhibits 5HT response by 75% to 100%)”, the “5HT2A Antagonist mean @ 10 μM (%)” value is “A (inhibits 5HT response by >100%)” and the “5HT2A Antagonist mean @ 100 μM (%)” value was “A (inhibits 5HT response by >100%)”. In addition, the concentration giving a half-maximal response (EC50) at 5HT2A is over 10 µM. In addition, the fold induction at 10 µM with rat cortical neurons (setting [3]) lay within 1.5 to 3. Further, the fold induction at 10 µM with rat cortical neurons (setting [4]) lay within 1.5 to 3.

For `Clc1ccc2c(ccn2CCN2CCCCC2)c1` [Example 48, 5-chloro-1-(2-(piperidin-1-yl)ethyl)-1H-indole], in the test with 5HT2A sensor [1], the “5HT2A Agonist mean @ 100 nM (%)” value is recorded as “B (does not activate 5HT2A sensor assay in agonist mode)”, the “5HT2A Agonist mean @ 10 μM (%)” value was “B (does not activate 5HT2A sensor assay in agonist mode)” and the “5HT2A Agonist mean @ 100 μM (%)” value was “B (does not activate 5HT2A sensor assay in agonist mode)”. In addition, in the test with 5HT2A sensor [2], the “5HT2A Antagonist mean @ 100 nM (%)” value is “A (inhibits 5HT response by >100%)”, the “5HT2A Antagonist mean @ 10 μM (%)” value is listed as “A (inhibits 5HT response by >100%)” and the “5HT2A Antagonist mean @ 100 μM (%)” value is on record as “A (inhibits 5HT response by >100%)”. Also, at 5HT2A, the EC50 was over 10 µM. Moreover, the fold induction at 10 µM in the test on rat cortical neurons (setting [3]) lay in the range of 1.5 to 3. Moreover, the fold induction at 10 µM in the test with rat cortical neurons (setting [4]) lay in the range of 1.5 to 3.

For the compound `COc1cc2ccn(C[C@@H](C)N(C)C)c2cc1OC` [Example 62, (R)-1-(5,6-dimethoxy-1H-indol-1-yl)-N,N-dimethylpropan-2-amine], in the test on 5HT2A sensor [1], the “5HT2A Agonist mean @ 100 nM (%)” value is recorded as “B (does not activate 5HT2A sensor assay in agonist mode)”, the “5HT2A Agonist mean @ 10 μM (%)” value is “B (does not activate 5HT2A sensor assay in agonist mode)” and the “5HT2A Agonist mean @ 100 μM (%)” value is recorded as “A (activates 5HT2A sensor assay in agonist mode)”. In the test on 5HT2A sensor [2], the “5HT2A Antagonist mean @ 100 nM (%)” value was “B (inhibits 5HT response by 75% to 100%)”, the “5HT2A Antagonist mean @ 10 μM (%)” value is “B (inhibits 5HT response by 75% to 100%)” and the “5HT2A Antagonist mean @ 100 μM (%)” value is “A (inhibits 5HT response by >100%)”. For the same compound, the EC50 at 5HT2A is over 10 µM. For the same compound, the fold induction at 10 µM with rat cortical neurons (setting [3]) was in the range of 1.5 to 3. Besides, the fold induction at 10 µM with rat cortical neurons (setting [4]) lay in the range of 1.5 to 3.

Regarding `Clc1ccc2c(ccn2CCN2CCCC2)c1` [Example 47, 5-chloro-1-(2-(pyrrolidin-1-yl)ethyl)-1H-indole], in the test on 5HT2A sensor [1], the “5HT2A Agonist mean @ 100 nM (%)” value was “B (does not activate 5HT2A sensor assay in agonist mode)”, the “5HT2A Agonist mean @ 10 μM (%)” value was “B (does not activate 5HT2A sensor assay in agonist mode)” and the “5HT2A Agonist mean @ 100 μM (%)” value is “B (does not activate 5HT2A sensor assay in agonist mode)”. Besides, in the test on 5HT2A sensor [2], the “5HT2A Antagonist mean @ 100 nM (%)” value is given as “A (inhibits 5HT response by >100%)”, the “5HT2A Antagonist mean @ 10 μM (%)” value is reported as “A (inhibits 5HT response by >100%)” and the “5HT2A Antagonist mean @ 100 μM (%)” value is given as “A (inhibits 5HT response by >100%)”. The EC50 at 5HT2A is under 10 µM. The fold induction at 10 µM in the test with rat cortical neurons (setting [3]) fell in the range of 1.5 to 3. Moreover, in the test with rat cortical neurons (setting [4]), the fold induction at 10 µM was over 3.

Take `COc1cc2ccn(C[C@@H](C)N(C)C)c2cc1F` [Example 61, (R)-1-(6-fluoro-5-methoxy-1H-indol-1-yl)-N,N-dimethylpropan-2-amine]: in the test with 5HT2A sensor [1], the “5HT2A Agonist mean @ 100 nM (%)” value was “B (does not activate 5HT2A sensor assay in agonist mode)”, the “5HT2A Agonist mean @ 10 μM (%)” value is on record as “B (does not activate 5HT2A sensor assay in agonist mode)” and the “5HT2A Agonist mean @ 100 μM (%)” value is listed as “B (does not activate 5HT2A sensor assay in agonist mode)”. Moreover, in the test with 5HT2A sensor [2], the “5HT2A Antagonist mean @ 100 nM (%)” value is on record as “A (inhibits 5HT response by >100%)”, the “5HT2A Antagonist mean @ 10 μM (%)” value is recorded as “A (inhibits 5HT response by >100%)” and the “5HT2A Antagonist mean @ 100 μM (%)” value is reported as “A (inhibits 5HT response by >100%)”. Besides, the 50% effective concentration (EC50) on 5HT2A is over 10 µM. In the test on rat cortical neurons (setting [3]), the fold induction at 10 µM lay in the range of 1.5 to 3. In addition, the fold induction at 10 µM in the test with rat cortical neurons (setting [4]) was 1.5 to 3.

`COc1cc(OC)c2c(ccn2C[C@@H](C)N(C)C)c1` [Example 63, (R)-1-(5,7-dimethoxy-1H-indol-1-yl)-N,N-dimethylpropan-2-amine]: in the test on 5HT2A sensor [1], the “5HT2A Agonist mean @ 100 nM (%)” value is recorded as “B (does not activate 5HT2A sensor assay in agonist mode)”, the “5HT2A Agonist mean @ 10 μM (%)” value is on record as “B (does not activate 5HT2A sensor assay in agonist mode)” and the “5HT2A Agonist mean @ 100 μM (%)” value is given as “B (does not activate 5HT2A sensor assay in agonist mode)”. Besides, in the test on 5HT2A sensor [2], the “5HT2A Antagonist mean @ 100 nM (%)” value is reported as “B (inhibits 5HT response by 75% to 100%)”, the “5HT2A Antagonist mean @ 10 μM (%)” value is “B (inhibits 5HT response by 75% to 100%)” and the “5HT2A Antagonist mean @ 100 μM (%)” value was “A (inhibits 5HT response by >100%)”. Moreover, the concentration giving a half-maximal response (EC50) at 5HT2A is over 10 µM. Besides, in the test with rat cortical neurons (setting [3]), the fold induction at 10 µM was 1.5 to 3. Also, in the test on rat cortical neurons (setting [4]), the fold induction at 10 µM lay within 1.5 to 3.

For `COc1cc(C)c2c(ccn2C[C@@H](C)N(C)C)c1` [Example 65, (R)-1-(5-methoxy-7-methyl-1H-indol-1-yl)-N,N-dimethylpropan-2-amine], in the test with 5HT2A sensor [1], the “5HT2A Agonist mean @ 100 nM (%)” value is given as “B (does not activate 5HT2A sensor assay in agonist mode)”, the “5HT2A Agonist mean @ 10 μM (%)” value is “B (does not activate 5HT2A sensor assay in agonist mode)” and the “5HT2A Agonist mean @ 100 μM (%)” value is reported as “B (does not activate 5HT2A sensor assay in agonist mode)”. In the test on 5HT2A sensor [2], the “5HT2A Antagonist mean @ 100 nM (%)” value is “C (inhibits 5HT response by <75%)”, the “5HT2A Antagonist mean @ 10 μM (%)” value was “A (inhibits 5HT response by >100%)” and the “5HT2A Antagonist mean @ 100 μM (%)” value is “A (inhibits 5HT response by >100%)”. At 5HT2A, the EC50 is over 10 µM. For the same compound, the fold induction at 10 µM with rat cortical neurons (setting [3]) lay in the range of 1.5 to 3. Also, in the test on rat cortical neurons (setting [4]), the fold induction at 10 µM lay in the range of 1.5 to 3.

As for `FC(F)(F)Oc1ccc2c(ccn2CCN2CCCC2)c1` [Example 50, 1-(2-(pyrrolidin-1-yl)ethyl)-5-(trifluoromethoxy)-1H-indole], in the test on 5HT2A sensor [1], the “5HT2A Agonist mean @ 100 nM (%)” value is “B (does not activate 5HT2A sensor assay in agonist mode)”, the “5HT2A Agonist mean @ 10 μM (%)” value is on record as “B (does not activate 5HT2A sensor assay in agonist mode)” and the “5HT2A Agonist mean @ 100 μM (%)” value is “A (activates 5HT2A sensor assay in agonist mode)”. Moreover, in the test with 5HT2A sensor [2], the “5HT2A Antagonist mean @ 100 nM (%)” value is reported as “A (inhibits 5HT response by >100%)”, the “5HT2A Antagonist mean @ 10 μM (%)” value is given as “B (inhibits 5HT response by 75% to 100%)” and the “5HT2A Antagonist mean @ 100 μM (%)” value is reported as “A (inhibits 5HT response by >100%)”. In addition, on 5HT2A, the concentration for a half-maximal effect (EC50) was over 10 µM. Besides, the fold induction at 10 µM in the test with rat cortical neurons (setting [3]) lay within 1.5 to 3. Also, the fold induction at 10 µM in the test with rat cortical neurons (setting [4]) was 1.5 to 3.
